# Data reported in publication PMC3961306, “Comparison of the Cancer Gene Targeting and Biochemical Selectivities of All Targeted Kinase Inhibitors Approved for Clinical Use” (PLoS ONE, 2014).
# Legend:
# Experiment in all cases: Kinase profiling in a biochemical assay panel (mobility shift assays and ELISA), %-inhibition at 1 μM; selectivity entropy
# [1] = target: panel of more than 300 wild-type and mutant kinases (313 kinase panel) (Homo sapiens, UniProt Q13177)
# [2] = target: panel of more than 300 wild-type and mutant kinases (313 kinase panel) (Homo sapiens, UniProt P22455); settings: kinase FGFR4; compound at 1 μM
# [3] = target: panel of more than 300 wild-type and mutant kinases (313 kinase panel) (Homo sapiens, UniProt P22694)
# [4] = target: panel of more than 300 wild-type and mutant kinases (313 kinase panel) (Homo sapiens, UniProt P54756)
# [5] = target: panel of more than 300 wild-type and mutant kinases (313 kinase panel) (Homo sapiens, UniProt P08922)
# [6] = target: T1, panel of more than 300 wild-type and mutant kinases (313 kinase panel) (Homo sapiens, UniProt Q9H093)
# T1 sequence (Q9H093 1-628): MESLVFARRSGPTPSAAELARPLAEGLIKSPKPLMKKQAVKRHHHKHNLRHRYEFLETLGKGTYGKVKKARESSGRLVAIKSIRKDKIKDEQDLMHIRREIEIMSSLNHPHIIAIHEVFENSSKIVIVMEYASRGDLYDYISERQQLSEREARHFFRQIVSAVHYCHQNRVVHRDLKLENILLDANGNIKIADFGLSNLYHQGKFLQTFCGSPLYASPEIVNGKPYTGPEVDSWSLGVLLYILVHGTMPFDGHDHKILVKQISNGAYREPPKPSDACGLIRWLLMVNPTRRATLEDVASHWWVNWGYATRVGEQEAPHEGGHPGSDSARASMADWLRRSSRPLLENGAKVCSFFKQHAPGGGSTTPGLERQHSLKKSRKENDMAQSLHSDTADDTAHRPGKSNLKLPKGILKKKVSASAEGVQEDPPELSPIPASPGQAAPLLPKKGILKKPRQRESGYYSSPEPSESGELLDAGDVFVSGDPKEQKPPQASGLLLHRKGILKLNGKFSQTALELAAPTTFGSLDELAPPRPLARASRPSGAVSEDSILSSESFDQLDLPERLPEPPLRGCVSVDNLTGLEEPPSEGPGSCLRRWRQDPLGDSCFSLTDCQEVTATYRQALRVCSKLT
# [7] = target: panel of more than 300 wild-type and mutant kinases (313 kinase panel) (Homo sapiens, UniProt Q9H422); settings: kinase HIPK3; compound at 1 μM
# [8] = target: T2, panel of more than 300 wild-type and mutant kinases (313 kinase panel) (Homo sapiens, UniProt Q13470)
# T2 sequence (Q13470 1-666): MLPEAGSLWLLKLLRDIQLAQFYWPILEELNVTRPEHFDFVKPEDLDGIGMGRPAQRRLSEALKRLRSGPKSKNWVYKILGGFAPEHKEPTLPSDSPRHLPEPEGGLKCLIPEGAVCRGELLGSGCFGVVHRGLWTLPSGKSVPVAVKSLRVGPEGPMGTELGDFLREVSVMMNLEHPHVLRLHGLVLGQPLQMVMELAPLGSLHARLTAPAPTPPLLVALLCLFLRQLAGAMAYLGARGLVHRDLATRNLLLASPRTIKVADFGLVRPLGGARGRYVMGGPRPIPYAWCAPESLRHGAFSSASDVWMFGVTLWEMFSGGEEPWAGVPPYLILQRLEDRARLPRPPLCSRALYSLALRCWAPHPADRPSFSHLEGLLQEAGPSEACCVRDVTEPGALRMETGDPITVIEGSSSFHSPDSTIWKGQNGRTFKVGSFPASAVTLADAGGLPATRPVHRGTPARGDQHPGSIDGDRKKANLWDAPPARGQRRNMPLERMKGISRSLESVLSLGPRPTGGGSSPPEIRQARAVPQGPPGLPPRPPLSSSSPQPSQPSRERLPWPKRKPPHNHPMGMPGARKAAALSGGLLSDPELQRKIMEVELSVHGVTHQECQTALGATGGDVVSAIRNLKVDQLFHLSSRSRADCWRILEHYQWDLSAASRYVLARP
# [9] = target: panel of more than 300 wild-type and mutant kinases (313 kinase panel) (Homo sapiens, UniProt P78368); settings: kinase CK1γ2; 1 μM compound
# [10] = target: panel of more than 300 wild-type and mutant kinases (313 kinase panel) (Homo sapiens, UniProt P29597)
# [11] = target: panel of more than 300 wild-type and mutant kinases (313 kinase panel) (Homo sapiens, UniProt P05129); settings: kinase PKCγ; 1 μM
# [12] = target: panel of more than 300 wild-type and mutant kinases (313 kinase panel) (Homo sapiens, UniProt Q15349); settings: kinase RSK3; 1 μM
# [13] = target: panel of more than 300 wild-type and mutant kinases (313 kinase panel) (Homo sapiens, UniProt Q9UPE1); settings: kinase MSSK1; 1 μM
# Sequence of panel of more than 300 wild-type and mutant kinases (313 kinase panel) (Homo sapiens, UniProt P29597) (P29597 whole entry, change not shown): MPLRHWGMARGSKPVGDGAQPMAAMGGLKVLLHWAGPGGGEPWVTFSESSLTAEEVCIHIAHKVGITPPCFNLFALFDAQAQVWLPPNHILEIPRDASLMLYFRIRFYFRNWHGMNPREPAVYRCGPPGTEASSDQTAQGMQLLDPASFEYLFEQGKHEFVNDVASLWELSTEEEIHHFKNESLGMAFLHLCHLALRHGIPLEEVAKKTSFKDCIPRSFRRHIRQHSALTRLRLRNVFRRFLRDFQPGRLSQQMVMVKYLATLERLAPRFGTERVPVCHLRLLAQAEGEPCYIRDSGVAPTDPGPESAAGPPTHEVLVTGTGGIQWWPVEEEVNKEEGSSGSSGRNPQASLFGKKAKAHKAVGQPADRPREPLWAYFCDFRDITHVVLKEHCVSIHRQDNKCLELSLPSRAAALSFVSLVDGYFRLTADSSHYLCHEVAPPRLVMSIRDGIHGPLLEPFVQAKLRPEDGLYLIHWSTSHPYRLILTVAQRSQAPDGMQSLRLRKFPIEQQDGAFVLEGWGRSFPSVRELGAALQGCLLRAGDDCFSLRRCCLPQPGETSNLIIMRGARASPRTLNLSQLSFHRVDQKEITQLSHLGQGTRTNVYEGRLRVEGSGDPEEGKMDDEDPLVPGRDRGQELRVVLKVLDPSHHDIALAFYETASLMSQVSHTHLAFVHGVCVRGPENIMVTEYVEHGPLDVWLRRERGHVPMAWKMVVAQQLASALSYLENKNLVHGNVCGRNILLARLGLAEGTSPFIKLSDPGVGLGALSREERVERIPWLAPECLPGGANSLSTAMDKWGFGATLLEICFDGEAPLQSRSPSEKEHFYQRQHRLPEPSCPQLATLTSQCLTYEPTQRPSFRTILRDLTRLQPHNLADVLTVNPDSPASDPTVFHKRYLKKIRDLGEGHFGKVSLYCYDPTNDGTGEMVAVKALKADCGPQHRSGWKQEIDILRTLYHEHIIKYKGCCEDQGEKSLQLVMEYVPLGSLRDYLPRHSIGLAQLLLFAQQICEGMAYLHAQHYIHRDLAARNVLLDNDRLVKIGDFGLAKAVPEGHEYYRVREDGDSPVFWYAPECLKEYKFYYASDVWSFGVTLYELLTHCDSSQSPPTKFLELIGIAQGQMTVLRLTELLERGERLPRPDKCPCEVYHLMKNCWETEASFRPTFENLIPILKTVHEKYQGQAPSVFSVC
Structure (SMILES),"%-inhibition of PAK2 ([1]; kinase PAK2, 1 μM) [%]",%-inhibition of FGFR4 [2] [%],"%-inhibition of PKACβ ([3]; kinase PKACβ, 1 μM) [%]","%-inhibition of EPHA5 ([4]; kinase EPHA5, compound at 1 μM) [%]","%-inhibition of ROS ([5]; kinase ROS, 1 μM) [%]","%-inhibition of NuaK2 ([6]; kinase NuaK2, 1 μM) [%]",%-inhibition of HIPK3 [7] [%],"%-inhibition of TNK1 ([8]; kinase TNK1, 1 μM) [%]","%-inhibition, CK1γ2 [9] [%]","%-inhibition of TYK2 ([10]; kinase TYK2, compound at 1 μM) [%]",%-inhibition of PKCγ [11] [%],%-inhibition of RSK3 [12] [%],%-inhibition of MSSK1 [13] [%],%-inhibition of PAK2 ([1]; 1 µM) [%],%-inhibition of PKACβ ([3]; 1 µM) [%],%-inhibition of EPHA5 ([4]; 1 µM) [%],%-inhibition of ROS ([5]; 1 µM) [%],%-inhibition of NuaK2 ([6]; 1 µM) [%],%-inhibition of TNK1 ([8]; 1 µM) [%],%-inhibition of TYK2 ([10]; 1 µM) [%]
CCCS(=O)(=O)Nc1ccc(F)c(C(=O)c2c[nH]c3ncc(-c4ccc(Cl)cc4)cc23)c1F [vemurafenib],13,5,2.66,14,2,4.36,-6,13,0.506,6,-4.39,-0.497,-6.65,–,–,–,–,–,–,–
Cc1cn(-c2cc(NC(=O)c3ccc(C)c(Nc4nccc(-c5cccnc5)n4)c3)cc(C(F)(F)F)c2)cn1 [nilotinib],–,-7.46,–,–,–,–,12,–,5.57,–,-1.31,11,-17,-40,28,93,-0.679,-44,-4,-1.71
CS(=O)(=O)CCNCc1ccc(-c2ccc3ncnc(Nc4ccc(OCc5cccc(F)c5)c(Cl)c4)c3c2)o1 [lapatinib],7,0.821,-3,6,5.46,-1.19,0.236,-8.45,-1.22,-10,-0.202,5.43,-3,–,–,–,–,–,–,–
CNC(=O)c1cc(Oc2ccc(NC(=O)Nc3ccc(Cl)c(C(F)(F)F)c3)c(F)c2)ccn1 [regorafenib],-1.3,33,-0.531,97,5,-24,88,47,-3,-3.68,-8,45,43,–,–,–,–,–,–,–
CO[C@H]1C[C@@H]2CC[C@@H](C)[C@@](O)(O2)C(=O)C(=O)N2CCCC[C@H]2C(=O)O[C@H]([C@H](C)C[C@@H]2CC[C@@H](OCCO)[C@H](OC)C2)CC(=O)[C@H](C)/C=C(\C)[C@@H](O)[C@@H](OC)C(=O)[C@H](C)C[C@H](C)/C=C/C=C/C=C/1C [everolimus],-8,-7.59,-6,-1.69,-0.608,-0.726,-8,-0.4,-2.3,-7,-6.56,-9,-7,–,–,–,–,–,–,–
CC(=O)Nc1cccc(-n2c(=O)n(C3CC3)c(=O)c3c(Nc4ccc(I)cc4F)n(C)c(=O)c(C)c32)c1 [trametinib],-9,-3,-5,-2.67,-0.611,9,0.0849,–,-2.15,2.16,0.381,-5,-5,–,–,–,–,–,-2.58,–
CO[C@H]1C[C@@H]2CC[C@@H](C)[C@@](O)(O2)C(=O)C(=O)N2CCCC[C@H]2C(=O)O[C@H]([C@H](C)C[C@@H]2CC[C@@H](OC(=O)C(C)(CO)CO)[C@H](OC)C2)CC(=O)[C@H](C)/C=C(\C)[C@@H](O)[C@@H](OC)C(=O)[C@H](C)C[C@H](C)/C=C/C=C/C=C/1C [temsirolimus],-1.81,-4.51,-6,-3.79,-2,-5.44,0.626,-3,-3.32,-6.58,-11,-3,-8,–,–,–,–,–,–,–
